Holding throughout (assay): microbe, parasite or virus in culture
Type in all cases: cell-based, Hepatitis C virus (HCV)

One experiment deals with HCV replicon 1A. The settings on record: replicon 1A, Replicon Assay A. An outline of the steps: (§1)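 HCV RNA levels were calculated from Ct values (minus intercept, divided by slope) of a Neo primer/probe standard curve, with cyclophilin quantified the same way. Cells were seeded at 2000/well and incubated with compound for 3 days in 5% serum and 0.5% DMSO.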
The test system of the next experiment is HCV replicon 2B. The settings on record: Replicon Assay A; for pIC50: read-out: 2B IC50, replicon 2B; for IC50: Hepatitis C virus, read-out: 2B IC50 (nM), replicon 2B. The essentials: as §1
(A replicon is a self-replicating genome or part of one, used to study replication in cells.)

Another experiment concerns HCV replicon 1AY93H. To be noted: Replicon Assay A; for pIC50: read-out: 1A Y93H IC50, replicon 1AY93H. An outline of the steps:
as §1

For the next experiment, the system named is HCV replicon 1B. To be noted: replicon 1B, Replicon Assay B.
The test system of another experiment is HCV replicon 1AQ30D. The settings on record: Replicon Assay B; for pIC50: read-out: 1A Q30D IC50, replicon 1AQ30D; for IC50: Hepatitis C virus, read-out: 1A Q30D IC50 (nM), replicon 1AQ30D.

Structures are written as SMILES. pIC50: −log10 of the molar value. Where two headings read alike, the source gives them in different places.

In general, pIC50 refers to −log10 of the IC50, conventionally taken in molar units. Take `COC(=O)NC(C(=O)N1CCC[C@H]1c1ncc(-c2ccc3c(c2)cc2n3C(c3ccc(C4CC4)s3)Oc3cc(-c4cnc([C@@H]5CCCN5C(=O)[C@@H](NC(=O)OC)C(C)C)[nH]4)cc(F)c3-2)[nH]1)C1CCO[C@H](C)C1` (single isomer, unassigned) [Compound 134]: the pIC50 was 11.60 with HCV replicon 1A; 11.52 in the experiment on HCV replicon 2B; 11.70 with HCV replicon 1AY93H; 11.59 in the experiment with HCV replicon 1B; 10.82 with HCV replicon 1AQ30D.
With `COC(=O)NC(C(=O)N1CCC[C@H]1c1ncc(-c2ccc3c(c2)cc2n3C(c3ccc(C4CC4)s3)Oc3cc(-c4cnc([C@@H]5CCCN5C(=O)[C@@H](NC(=O)OC)C(C)C)[nH]4)cc(F)c3-2)[nH]1)C1CCO[C@H](C)C1` (single isomer, unassigned) [Compound 135], the pIC50 in the experiment with HCV replicon 1A is 11.62; in the experiment with HCV replicon 2B, 11.22; with HCV replicon 1AY93H it was 11.40; with HCV replicon 1B, 11.52; in the experiment on HCV replicon 1AQ30D it was 10.57.
Taken in the same sequence, the figures for `COC(=O)NC(C(=O)N1CCC[C@H]1c1ncc(-c2ccc3c(c2)cc2n3C(c3ccc(C4CC4)s3)Oc3cc(-c4cnc([C@@H]5CCCN5C(=O)[C@@H](NC(=O)OC)C(C)C)[nH]4)cc(F)c3-2)[nH]1)C1CCO[C@H](C)C1` (single isomer, unassigned) [Compound 136] were 11.74, 9.64, 9.70, 11.77 and 9.05.
Taken in the same sequence, the figures for `COC(=O)NC(C(=O)N1CCC[C@H]1c1ncc(-c2ccc3c(c2)cc2n3C(c3ccc(C4CC4)s3)Oc3cc(-c4cnc([C@@H]5CCCN5C(=O)[C@@H](NC(=O)OC)C(C)C)[nH]4)cc(F)c3-2)[nH]1)C1CCO[C@H](C)C1` (single isomer, unassigned) [Compound 138] were 11.89, 10.21, 10.72, 11.85 and 9.17.
Taken in the same sequence, the figures for `COC(=O)NC(C(=O)N1CCC[C@H]1c1ncc(-c2ccc3c(c2)cc2n3C(c3ccc(C4CC4)s3)Oc3cc(-c4cnc([C@@H]5CCCN5C(=O)[C@@H](NC(=O)OC)C(C)C)[nH]4)cc(F)c3-2)[nH]1)C1CCO[C@H](C)C1` (single isomer, unassigned) [Compound 139] were 11.72, 9.96, 10.07, 11.85 and 8.99.
Usually IC50 stands for the point on the concentration scale where inhibition reaches its midpoint. For `CCc1ccc(C2Oc3cc(-c4cnc([C@@H]5CCCN5C(=O)C(NC(=O)OC)C5C[C@@H](C)O[C@@H](C)C5)[nH]4)cc(F)c3-c3cc4cc(-c5cnc([C@@H]6CCCN6C(=O)[C@@H](NC(=O)OC)C(C)C)[nH]5)ccc4n32)s1` (single isomer, unassigned) [Compound 156], the pIC50 in the experiment on HCV replicon 1A was 11.70; in the experiment with HCV replicon 2B, 11.30; in the experiment with HCV replicon 1AY93H, 11.30; in the experiment with HCV replicon 1B (Hepatitis C virus), 11.74. Further, the IC50 in the experiment with HCV replicon 1AQ30D was 0.019 nM.
On to `CCc1ccc(C2Oc3cc(-c4cnc([C@@H]5CCCN5C(=O)C(NC(=O)OC)C5CCOC(C)(C)C5)[nH]4)cc(F)c3-c3cc4cc(-c5cnc([C@@H]6CCCN6C(=O)[C@@H](NC(=O)OC)C(C)C)[nH]5)ccc4n32)s1` (single isomer, unassigned) [Compound 162], for which the pIC50 in the experiment on HCV replicon 1A is 11.66; in the experiment with HCV replicon 2B, 11.22; with HCV replicon 1AY93H, 11.40; in the experiment with HCV replicon 1B it was 11.72; in the experiment on HCV replicon 1AQ30D it was 10.57.
Taken in the same sequence, the figures for `CCc1ccc(C2Oc3cc(-c4cnc([C@@H]5CCCN5C(=O)C(NC(=O)OC)C5CCOC(C)(C)C5)[nH]4)cc(F)c3-c3cc4cc(-c5cnc([C@@H]6CCCN6C(=O)[C@@H](NC(=O)OC)C(C)C)[nH]5)ccc4n32)s1` (single isomer, unassigned) [Compound 163] were 10.74, 10.20, 10.24, 10.50 and 9.77.
On to `COC(=O)NC(C(=O)N1CCC[C@H]1c1ncc(-c2ccc3c(c2)cc2n3C(c3ccc(C4CC4)s3)Oc3cc(-c4cnc([C@@H]5CCCN5C(=O)[C@@H](NC(=O)OC)C5CCOCC5)[nH]4)cc(F)c3-2)[nH]1)C(C)(C)F` (single isomer, unassigned) [Compound 172], for which the pIC50 with HCV replicon 1A was 11.82; with HCV replicon 2B, 11.30; in the experiment with HCV replicon 1AY93H it was 11.40; in the experiment on HCV replicon 1B (Hepatitis C virus), 11.74; with HCV replicon 1AQ30D, 10.74.
Consider `COC(=O)NC(C(=O)N1CCC[C@H]1c1ncc(-c2ccc3c(c2)cc2n3C(c3ccc(C4CC4)s3)Oc3cc(-c4cnc([C@@H]5CCCN5C(=O)[C@@H](NC(=O)OC)C5CCOCC5)[nH]4)cc(F)c3-2)[nH]1)C(C)(C)F` (single isomer, unassigned) [Compound 173], for which the pIC50 is 11.77 in the experiment with HCV replicon 1A; 9.46 in the experiment on HCV replicon 2B; 10.01 with HCV replicon 1AY93H; 11.68 in the experiment on HCV replicon 1B; 9.55 with HCV replicon 1AQ30D.
For `COC(=O)NC(C(=O)N1CCC[C@H]1c1ncc(-c2ccc3c(c2)cc2n3C(c3cc4ccccc4s3)Oc3cc(-c4cnc([C@@H]5CCCN5C(=O)[C@@H](NC(=O)OC)C5CCOCC5)[nH]4)cc(F)c3-2)[nH]1)C(C)(C)F` (single isomer, unassigned) [Compound 182], the pIC50 is 11.70 in the experiment on HCV replicon 1A; 11.30 with HCV replicon 2B; 10.36 in the experiment with HCV replicon 1AY93H; 11.70 in the experiment with HCV replicon 1B (Hepatitis C virus); 10.31 in the experiment with HCV replicon 1AQ30D.
In the case of `COC(=O)NC(C(=O)N1CCC[C@H]1c1ncc(-c2ccc3c(c2)cc2n3C(c3cc4ccccc4s3)Oc3cc(-c4cnc([C@@H]5CCCN5C(=O)[C@@H](NC(=O)OC)C5CCOCC5)[nH]4)cc(F)c3-2)[nH]1)C(C)(C)F` (single isomer, unassigned) [Compound 183], the pIC50 in the experiment on HCV replicon 1A is 11.92; with HCV replicon 2B, 9.17; in the experiment with HCV replicon 1AY93H, 9.13; with HCV replicon 1B, 11.62; in the experiment on HCV replicon 1AQ30D, 8.97.
Taken in the same sequence, the figures for `COC(=O)NC(C(=O)N1CCC[C@H]1c1ncc(-c2ccc3c(c2)cc2n3C(c3cc4ccccc4s3)Oc3cc(-c4cnc([C@@H]5CCCN5C(=O)[C@@H](NC(=O)OC)C5CCOCC5)[nH]4)cc(F)c3-2)[nH]1)C(C)(C)F` (single isomer, unassigned) [Compound 184] were 11.70, 10.12, 9.80, 11.70 and 9.68.
Taken in the same sequence, the figures for `COC(=O)NC(C(=O)N1CCC[C@H]1c1ncc(-c2ccc3c(c2)cc2n3C(c3cc4ccccc4s3)Oc3cc(-c4cnc([C@@H]5CCCN5C(=O)[C@@H](NC(=O)OC)C5CCOCC5)[nH]4)cc(F)c3-2)[nH]1)C(C)(C)F` (single isomer, unassigned) [Compound 185] were 11.34, 8.87, 8.62, 11.59 and 8.53.
In the case of `COC(=O)NC(C(=O)N1CCC[C@H]1c1ncc(-c2cc(F)c3c(c2)OC(c2ccc(C4CC4)s2)n2c-3cc3cc(-c4cnc([C@@H]5CCCN5C(=O)[C@@H](NC(=O)OC)C(C)C)[nH]4)ccc32)[nH]1)C1C[C@@H](C)O[C@@H](C)C1` (single isomer, unassigned) [Compound 186], the pIC50 in the experiment with HCV replicon 1A is 11.72; in the experiment with HCV replicon 1AY93H it was 9.28; in the experiment on HCV replicon 1B (Hepatitis C virus) it was 11.68. Besides, the figures for the IC50 with HCV replicon 2B and with HCV replicon 1AQ30D were 0.63 nM and 2.84 nM, respectively.
For the compound `COC(=O)NC(C(=O)N1CCC[C@H]1c1ncc(-c2cc(F)c3c(c2)OC(c2ccc(C4CC4)s2)n2c-3cc3cc(-c4cnc([C@@H]5CCCN5C(=O)[C@@H](NC(=O)OC)C(C)C)[nH]4)ccc32)[nH]1)C1C[C@@H](C)O[C@@H](C)C1` (single isomer, unassigned) [Compound 189], the pIC50 in the experiment on HCV replicon 1A is 11.89; in the experiment with HCV replicon 2B, 9.32; in the experiment with HCV replicon 1AY93H it was 9.59; in the experiment on HCV replicon 1B, 11.74; in the experiment on HCV replicon 1AQ30D, 8.85.
With `CCc1ccc(C2Oc3cc(-c4cnc([C@@H]5CCCN5C(=O)[C@@H](NC(=O)OC)C(C)C)[nH]4)cc(F)c3-c3cc4cc(-c5cnc([C@@H]6C[C@H]7C[C@H]7N6C(=O)C(NC(=O)OC)C6CCOC(C)(C)C6)[nH]5)ccc4n32)s1` (single isomer, unassigned) [Compound 200], the pIC50 in the experiment with HCV replicon 1A was 11.68; with HCV replicon 2B it was 10.85; with HCV replicon 1AY93H, 11.70; in the experiment with HCV replicon 1B (Hepatitis C virus), 11.52; in the experiment on HCV replicon 1AQ30D it was 10.44.
Turning to `CCc1ccc(C2Oc3cc(-c4cnc([C@@H]5CCCN5C(=O)[C@@H](NC(=O)OC)C(C)C)[nH]4)cc(F)c3-c3cc4cc(-c5cnc([C@@H]6C[C@H]7C[C@H]7N6C(=O)C(NC(=O)OC)C6CCOC(C)(C)C6)[nH]5)ccc4n32)s1` (single isomer, unassigned) [Compound 201], the pIC50 is 11.82 in the experiment with HCV replicon 1A; 11.10 with HCV replicon 2B; 11.70 in the experiment with HCV replicon 1AY93H; 11.66 with HCV replicon 1B; 10.82 with HCV replicon 1AQ30D.
Turning to `COC(=O)NC(C(=O)N1CCC[C@H]1c1ncc(-c2ccc3c(c2)cc2n3C(c3ccc(C4CC4)s3)Oc3cc(-c4cnc([C@@H]5CCCN5C(=O)[C@@H](NC(=O)OC)C(C)C)[nH]4)cc(F)c3-2)[nH]1)C1C[C@@H](C)O[C@@H](C)C1` (single isomer, unassigned) [Compound 206], the pIC50 is 11.85 with HCV replicon 1A (Hepatitis C virus) and 11.59 in the experiment with HCV replicon 1B (Hepatitis C virus). Further, the IC50 with HCV replicon 2B stood at 0.16 nM; in the experiment on HCV replicon 1AY93H (Hepatitis C virus, read-out: 1A Y93H IC50 (nM), replicon 1AY93H), 0.16 nM; in the experiment on HCV replicon 1AQ30D it was 2.91 nM.

These data come from patent publication US20160257697A1, “THIOPHENE-SUBSTITUTED TETRACYCLIC COMPOUNDS AND METHODS OFUSE THEREOF FOR THE TREATMENT OF VIRAL DISEASES” (priority 2013, published 2016).
